Data on one molecule can be found in article PMC6704710, “Preclinical evaluation of 3D185, a novel potent inhibitor of FGFR1/2/3 and CSF-1R, in FGFR-dependent and macrophage-dominant cancer models” (Journal of Experimental & Clinical Cancer Research : CR, 2019).

One test has as its target T1, B-Raf(V599E)(h) (Homo sapiens, UniProt P15056, V600E).
T1 construct: purchased Eurofins (KinaseProfiler)
The experiment in a line: Eurofins kinase panel. The class given is biochemical. The conditions noted are these: read-out: Inhibition rate (%).

In the next test the target is T2, ErbB4(h) (Homo sapiens, UniProt Q15303).
T2 construct: purchased Eurofins (KinaseProfiler)
The experiment in a line: Eurofins kinase panel. The class given is biochemical. The conditions noted are these: read-out: Inhibition rate (%).

Another test has as its target T3, HIPK1(h) (Homo sapiens, UniProt Q86Z02).
T3 construct: purchased Eurofins (KinaseProfiler)
As to the kind of experiment: Eurofins kinase panel. The class given is biochemical. The note with it: read-out: Inhibition rate (%).

The target of another test is T4, JNK3(h) (Homo sapiens, UniProt P53779).
T4 construct: purchased Eurofins (KinaseProfiler)
The experiment in a line: Eurofins kinase panel. The class given is biochemical. The note with it: read-out: Inhibition rate (%).

A further test addresses T5, Mer(h) (Homo sapiens, UniProt Q12866).
T5 construct: purchased Eurofins (KinaseProfiler)
T5 sequence (Q12866 21-999): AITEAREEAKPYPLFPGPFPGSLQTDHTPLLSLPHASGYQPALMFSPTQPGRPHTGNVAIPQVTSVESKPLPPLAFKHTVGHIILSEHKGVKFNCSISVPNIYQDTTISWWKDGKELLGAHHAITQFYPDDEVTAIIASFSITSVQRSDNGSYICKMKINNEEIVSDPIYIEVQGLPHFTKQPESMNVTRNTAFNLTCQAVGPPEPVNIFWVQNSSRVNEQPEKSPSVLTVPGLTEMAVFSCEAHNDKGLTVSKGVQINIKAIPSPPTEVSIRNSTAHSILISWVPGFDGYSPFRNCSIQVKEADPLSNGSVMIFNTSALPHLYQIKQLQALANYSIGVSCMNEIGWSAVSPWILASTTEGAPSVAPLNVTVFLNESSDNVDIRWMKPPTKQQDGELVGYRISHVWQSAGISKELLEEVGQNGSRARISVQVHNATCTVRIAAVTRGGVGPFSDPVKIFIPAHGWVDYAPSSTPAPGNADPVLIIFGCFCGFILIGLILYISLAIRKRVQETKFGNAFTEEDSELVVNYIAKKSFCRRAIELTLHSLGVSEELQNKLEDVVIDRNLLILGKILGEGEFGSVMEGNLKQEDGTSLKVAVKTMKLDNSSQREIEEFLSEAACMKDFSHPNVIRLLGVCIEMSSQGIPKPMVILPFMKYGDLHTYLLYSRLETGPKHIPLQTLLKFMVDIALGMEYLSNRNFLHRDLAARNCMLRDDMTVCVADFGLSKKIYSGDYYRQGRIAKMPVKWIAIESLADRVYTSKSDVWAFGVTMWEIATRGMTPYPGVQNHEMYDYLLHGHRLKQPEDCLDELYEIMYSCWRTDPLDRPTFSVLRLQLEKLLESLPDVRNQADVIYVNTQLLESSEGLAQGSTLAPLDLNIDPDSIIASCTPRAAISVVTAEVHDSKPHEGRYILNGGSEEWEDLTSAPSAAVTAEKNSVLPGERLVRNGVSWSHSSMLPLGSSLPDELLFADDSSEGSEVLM
The experiment in a line: Eurofins kinase panel. The note with it: read-out: Inhibition rate (%). The class given is biochemical.

A further test concerns the target T6, SAPK2a(T106M)(h) (Homo sapiens, UniProt Q16539, T106M).
T6 construct: purchased Eurofins (KinaseProfiler)
The experiment in a line: Eurofins kinase panel. The class given is biochemical. The note with it: read-out: Inhibition rate (%).

Another test concerns the target T7, FGFR4 (Homo sapiens, UniProt P22455).
T7 construct: purchased Eurofins (Fremont, United States)
As to the kind of experiment: Kinase inhibition assay (ELISA). The class given is biochemical. The note with it: mean ± SD. Background: An ELISA detects its analyte on a solid surface through an enzyme-linked reagent.

For a further test, the target named is CSF-1R (Homo sapiens, UniProt P07333). The experiment in a line: Z'-LYTE kinase assay. The class given is biochemical. The conditions noted are these: mean ± SD.
The next test has as its system BMDM (CSF-1). As to the kind of experiment: Macrophage survival (CCK-8). The class given is cell-based, murine. The note with it: Mus musculus, BMDM, 168 h; 7 days, mean ± SD. The protocol:
Murine bone marrow and human monocytes were stimulated with CSF-1 for 7 days together with the indicated inhibitor, and cell viability was evaluated by the CCK-8 assay. The IC50 values are shown as the mean ± SD (nM) from two independent tests. B-E, To test the impact of 3D185 on the polarization of CSF-1-induced macrophages, murine bone marrow cells and human monocytes were induced to mature into macrophages with CSF-1 for 7 days and then stimulated with CSF-1, IL-4 and IL-13 for an additional 48 h. The expression of the markers MHC-II (b), CD86 (c), and CD206 (d) on induced murine macrophages and CD206 expression on induced human macrophages (e) were determined by flow cytometry, and the mean fluorescence intensity (MFI) was analyzed with FlowJo. Representative data from two independent experiments. f Murine bone marrow cells (left panel) and human monocytes (right panel) were induced to mature into macrophages with CSF-1 for 7 days and then stimulated with CSF-1, IL-4 and IL-13 and treated with vehicle or the indicated inhibitor for an additional 48 h. Then, all cells were collected to count viable cells by staining with trypan blue
(§1) Murine bone marrow-derived macrophages (BMDMs) and PBMCs were used for cell viability studies. BMDMs were harvested by flushing the tibias and femurs of 6- to 8-week-old C57BL/6 mice and depleting red blood cells (RBCs) by RBC lysis (Biogems). For BMDM survival, the cells were cultured for 7 days in RPMI 1640 containing 10% fetal bovine serum (FBS), 100 U/mL penicillin, 100 μg/mL streptomycin and 100 ng/mL mouse CSF-1 (or CSF-2) with or without the tested compounds. PBMCs were obtained from HemaCare and cultured for 7 days in RPMI 1640 containing 10% fetal bovine serum (FBS), 100 U/mL penicillin, 100 μg/mL streptomycin and 100 ng/mL human CSF-1 (or CSF-2) with or without the tested compounds. Cell viability was measured using the CCK-8 assay. For IL-4/IL-13-induced macrophage survival analysis, viable cells were counted by trypan blue exclusion.

In the next test the test system is BMDM (CSF-2). The experiment in a line: Macrophage survival (CCK-8). The class given is cell-based, murine. The conditions noted are these: Mus musculus, BMDM, 168 h; 7 days. The protocol: as §1
Test [1] deals with NCI-H1581 subcutaneous xenograft. The class given is in vivo. The note with it: 50 mg/kg oral once daily 14 days. The protocol: […]. When the tumor volume reached 100–150 mm^3, the mice were randomly assigned to the vehicle control group (n = 12) or a treatment group (n = 6 per group). […].
The tumors were measured twice per week using a microcaliper. Tumor volume (TV) was calculated as follows: TV = (length × width^2)/2. In addition, the individual relative tumor volume (RTV) was calculated as follows: RTV = Vt / V0, where Vt is the volume on a particular day and V0 is the volume at the beginning of the treatment. The RTV is shown on the indicated days as the […] ± SEM for the indicated groups of mice. […]

One may read the inhibition as the relative decrease from the control value, in per cent. As a reminder, the IC50 is the concentration needed to halve the response being measured. Low values mean greater potency, high ones weaker potency.

T2 sequence (Q15303 26-1308): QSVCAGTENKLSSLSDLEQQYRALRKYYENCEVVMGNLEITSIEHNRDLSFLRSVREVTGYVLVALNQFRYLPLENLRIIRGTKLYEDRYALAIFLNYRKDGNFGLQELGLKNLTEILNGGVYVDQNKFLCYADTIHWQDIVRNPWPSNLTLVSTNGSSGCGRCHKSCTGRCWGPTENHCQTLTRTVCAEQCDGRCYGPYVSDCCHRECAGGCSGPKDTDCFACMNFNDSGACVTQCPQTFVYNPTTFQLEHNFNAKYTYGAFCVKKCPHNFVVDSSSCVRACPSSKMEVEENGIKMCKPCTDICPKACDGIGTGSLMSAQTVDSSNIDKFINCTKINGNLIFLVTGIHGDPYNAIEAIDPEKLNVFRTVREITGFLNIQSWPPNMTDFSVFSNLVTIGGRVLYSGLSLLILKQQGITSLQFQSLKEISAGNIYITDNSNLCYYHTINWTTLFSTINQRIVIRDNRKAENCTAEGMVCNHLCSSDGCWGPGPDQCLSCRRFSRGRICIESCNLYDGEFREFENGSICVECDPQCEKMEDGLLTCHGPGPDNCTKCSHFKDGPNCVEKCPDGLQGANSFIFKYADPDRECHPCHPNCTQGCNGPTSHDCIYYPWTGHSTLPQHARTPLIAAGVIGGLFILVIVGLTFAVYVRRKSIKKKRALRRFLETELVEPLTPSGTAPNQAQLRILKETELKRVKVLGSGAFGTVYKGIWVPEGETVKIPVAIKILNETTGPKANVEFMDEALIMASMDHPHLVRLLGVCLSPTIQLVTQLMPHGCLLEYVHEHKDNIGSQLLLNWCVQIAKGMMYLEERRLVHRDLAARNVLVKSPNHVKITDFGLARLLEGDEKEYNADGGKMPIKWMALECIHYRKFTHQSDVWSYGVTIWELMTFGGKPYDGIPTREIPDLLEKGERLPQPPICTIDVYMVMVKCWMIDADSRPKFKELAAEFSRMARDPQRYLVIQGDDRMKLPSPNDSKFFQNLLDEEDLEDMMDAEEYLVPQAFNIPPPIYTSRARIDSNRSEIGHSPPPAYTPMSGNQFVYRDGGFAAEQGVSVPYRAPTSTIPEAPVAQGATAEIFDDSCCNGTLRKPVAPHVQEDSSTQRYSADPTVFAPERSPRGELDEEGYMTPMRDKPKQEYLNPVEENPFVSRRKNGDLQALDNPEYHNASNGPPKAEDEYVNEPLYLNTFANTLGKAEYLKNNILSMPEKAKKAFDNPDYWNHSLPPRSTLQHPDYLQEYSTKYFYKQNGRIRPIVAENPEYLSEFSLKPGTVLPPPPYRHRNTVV
T1 sequence (P15056 417-766 V600E limits assumed): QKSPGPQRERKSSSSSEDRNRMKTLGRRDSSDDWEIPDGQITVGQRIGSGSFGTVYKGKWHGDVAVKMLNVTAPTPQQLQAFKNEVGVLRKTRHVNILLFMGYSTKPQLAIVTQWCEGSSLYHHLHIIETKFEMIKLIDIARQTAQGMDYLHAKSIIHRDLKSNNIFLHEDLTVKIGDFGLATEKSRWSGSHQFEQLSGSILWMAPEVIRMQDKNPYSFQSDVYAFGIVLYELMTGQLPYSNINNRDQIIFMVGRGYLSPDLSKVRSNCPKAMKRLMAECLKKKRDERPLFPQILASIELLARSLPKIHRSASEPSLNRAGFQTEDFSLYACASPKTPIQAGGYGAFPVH
T6 sequence (Q16539 whole entry T106M): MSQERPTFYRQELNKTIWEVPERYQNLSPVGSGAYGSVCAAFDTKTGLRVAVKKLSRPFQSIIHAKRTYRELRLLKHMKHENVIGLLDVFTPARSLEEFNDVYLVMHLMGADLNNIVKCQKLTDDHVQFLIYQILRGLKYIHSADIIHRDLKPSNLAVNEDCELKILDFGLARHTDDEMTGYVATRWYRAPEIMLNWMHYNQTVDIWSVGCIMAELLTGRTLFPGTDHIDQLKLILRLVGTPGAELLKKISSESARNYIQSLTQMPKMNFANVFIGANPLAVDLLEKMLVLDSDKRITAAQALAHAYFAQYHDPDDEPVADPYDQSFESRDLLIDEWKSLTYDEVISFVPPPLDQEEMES
T3 sequence (Q86Z02 whole entry): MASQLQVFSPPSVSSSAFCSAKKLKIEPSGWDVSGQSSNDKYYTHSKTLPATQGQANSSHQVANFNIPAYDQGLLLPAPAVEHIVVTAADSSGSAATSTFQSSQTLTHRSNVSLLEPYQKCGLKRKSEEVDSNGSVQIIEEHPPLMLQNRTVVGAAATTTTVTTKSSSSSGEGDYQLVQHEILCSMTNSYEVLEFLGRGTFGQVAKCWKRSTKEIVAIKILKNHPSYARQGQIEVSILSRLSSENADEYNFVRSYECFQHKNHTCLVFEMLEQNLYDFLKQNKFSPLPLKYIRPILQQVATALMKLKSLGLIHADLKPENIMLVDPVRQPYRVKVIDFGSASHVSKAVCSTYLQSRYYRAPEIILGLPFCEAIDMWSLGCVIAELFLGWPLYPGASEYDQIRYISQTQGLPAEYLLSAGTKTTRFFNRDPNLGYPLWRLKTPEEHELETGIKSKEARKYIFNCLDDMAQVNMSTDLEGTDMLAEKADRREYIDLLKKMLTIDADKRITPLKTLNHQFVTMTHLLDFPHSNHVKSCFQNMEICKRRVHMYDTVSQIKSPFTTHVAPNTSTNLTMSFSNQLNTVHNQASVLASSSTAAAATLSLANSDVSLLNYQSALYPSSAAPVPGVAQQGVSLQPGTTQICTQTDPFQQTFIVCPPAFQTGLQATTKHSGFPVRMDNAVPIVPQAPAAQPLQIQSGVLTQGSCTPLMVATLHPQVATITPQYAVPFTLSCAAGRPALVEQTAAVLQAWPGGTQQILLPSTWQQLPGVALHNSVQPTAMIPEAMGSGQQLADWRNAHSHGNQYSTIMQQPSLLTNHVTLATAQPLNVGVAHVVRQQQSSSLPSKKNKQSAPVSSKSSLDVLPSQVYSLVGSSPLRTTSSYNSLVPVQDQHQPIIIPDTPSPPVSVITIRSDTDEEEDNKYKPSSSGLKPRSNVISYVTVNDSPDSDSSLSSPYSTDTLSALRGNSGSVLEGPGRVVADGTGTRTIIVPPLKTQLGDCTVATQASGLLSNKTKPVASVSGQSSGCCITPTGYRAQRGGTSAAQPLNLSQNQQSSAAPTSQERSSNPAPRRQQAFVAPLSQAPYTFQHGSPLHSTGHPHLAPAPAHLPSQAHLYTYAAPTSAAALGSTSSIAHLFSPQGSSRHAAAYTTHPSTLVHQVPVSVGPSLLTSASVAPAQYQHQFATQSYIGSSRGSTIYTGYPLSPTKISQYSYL
T4 sequence (P53779 whole entry): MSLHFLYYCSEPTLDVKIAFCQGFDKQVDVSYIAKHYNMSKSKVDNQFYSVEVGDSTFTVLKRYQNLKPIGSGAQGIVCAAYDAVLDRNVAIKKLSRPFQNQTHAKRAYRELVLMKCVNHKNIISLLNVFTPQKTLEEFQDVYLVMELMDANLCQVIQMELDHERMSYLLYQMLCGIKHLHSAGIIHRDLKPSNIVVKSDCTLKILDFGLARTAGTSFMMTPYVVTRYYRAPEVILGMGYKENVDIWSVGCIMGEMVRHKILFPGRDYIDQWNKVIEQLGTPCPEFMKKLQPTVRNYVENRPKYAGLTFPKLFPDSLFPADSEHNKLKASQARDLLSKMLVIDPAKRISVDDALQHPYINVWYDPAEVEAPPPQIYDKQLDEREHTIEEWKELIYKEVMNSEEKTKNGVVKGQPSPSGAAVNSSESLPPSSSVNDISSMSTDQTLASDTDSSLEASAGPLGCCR
T7 sequence (P22455 22-802): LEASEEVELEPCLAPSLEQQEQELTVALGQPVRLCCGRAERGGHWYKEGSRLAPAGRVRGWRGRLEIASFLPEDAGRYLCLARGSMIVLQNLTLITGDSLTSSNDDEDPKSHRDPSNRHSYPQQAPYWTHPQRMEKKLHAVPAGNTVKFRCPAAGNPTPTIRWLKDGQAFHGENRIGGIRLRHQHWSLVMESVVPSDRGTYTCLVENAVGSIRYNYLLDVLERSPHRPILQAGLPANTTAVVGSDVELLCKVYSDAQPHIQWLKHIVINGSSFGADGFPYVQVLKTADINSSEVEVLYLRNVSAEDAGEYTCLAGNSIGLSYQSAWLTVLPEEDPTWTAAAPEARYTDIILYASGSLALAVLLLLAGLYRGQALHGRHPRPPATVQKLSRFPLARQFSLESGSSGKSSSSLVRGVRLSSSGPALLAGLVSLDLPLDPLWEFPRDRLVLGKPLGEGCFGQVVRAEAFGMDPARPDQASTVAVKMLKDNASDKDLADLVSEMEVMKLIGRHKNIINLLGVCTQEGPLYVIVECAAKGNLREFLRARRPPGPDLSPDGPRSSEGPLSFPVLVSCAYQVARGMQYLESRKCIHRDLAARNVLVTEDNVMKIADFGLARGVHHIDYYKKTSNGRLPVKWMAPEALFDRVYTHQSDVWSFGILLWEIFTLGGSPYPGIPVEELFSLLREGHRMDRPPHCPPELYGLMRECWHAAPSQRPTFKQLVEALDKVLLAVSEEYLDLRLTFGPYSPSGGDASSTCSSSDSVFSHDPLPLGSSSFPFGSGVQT

In the case of `COc1cc(OC)c(Cl)c(-c2ccc3c(NC(=O)c4ccc(N5CCNC(C)(C)C5)cc4)n[nH]c3n2)c1Cl` [3D185], the inhibition at 0.01 µM is -1% at B-Raf(V599E)(h) (10 nM); -2% on ErbB4(h) (10 nM); -3% at HIPK1(h) (10 nM); -17% on JNK3(h) (10 nM); -9% at Mer(h) (10 nM); 0% on SAPK2a(T106M)(h) (10 nM). Further, the inhibition at 0.1 µM on B-Raf(V599E)(h) (100 nM) is -6%; on ErbB4(h) (100 nM), -1%; on HIPK1(h) (100 nM), 4%; at JNK3(h) (100 nM), -22%; on Mer(h) (100 nM) it was -7%; at SAPK2a(T106M)(h) (100 nM) it was 3%. Further, the inhibition at 1 µM at B-Raf(V599E)(h) (1000 nM) is 7%; on ErbB4(h) (1000 nM), 28%; on HIPK1(h) (1000 nM) it was 10%; on JNK3(h) (1000 nM), -36%; at Mer(h) (1000 nM), 32%; on SAPK2a(T106M)(h) (1000 nM), -3%. The IC50 against FGFR4 is 51.4 nM; at CSF-1R, 3.8 nM; in the test with BMDM (CSF-1), 57.8 nM; with BMDM (CSF-2), over 1000 nM. The “tumor growth inhibition rate” value in [1] is on record as 96.4%.
